Results reported in patent US10045972B2, “Hydroxypyridone derivatives, pharmaceutical compositions thereof, and their therapeutic use for treating inflammatory, neurodegenerative, or immune-mediated diseases” (BioTheryX, Inc., priority 2014, dated 2018).
Entries after “also recorded” stand apart in the source; their conditions may differ.

Legend:
[1] = test system: MO3-13 cells; test: Protection of differentiated MO3-13 cells against TNF-α toxicity (Kinetic Apoptosis Kit, live cell fluorescence microscopy); format: cell-based; settings: 1 μM ciclopirox with human TNF-α protein 30 ng/mL; images after 1, 15 and 72 hrs, FIG. 3
Method: The protective effects of ciclopirox on MO3-13 cells against TNF-α toxicity was also determined. MO3-13 cells were grown in 6 well dishes and allowed to adhere overnight. Cells were grown to 70% confluence and then differentiated into oligodendrocyte-like cells by removal of FBS from DMEM medium for 48 hrs. Cells were treated with vehicle (no treatment); human TNF-α protein (30 ng/mL); 1 μM ciclopirox; and a combination of 1 μM ciclopirox and human TNF-α protein (30 ng/mL). Cells were treated with Abcam's Kinetic Apoptosis Kit (Microscopy) prior to live cell fluorescence microscopy imaging using an inverted Zeiss epi-fluorescent microscope. Merged images of phase contrast, green (pSIVA-IANBD) and red (PI) fluorescence were captured after 1 hr, 15 and 72 hrs in cell culture.

[2] = test system: TNF-α secretion from human primary glioblastoma cells (U87); test: Reduction of TNF-α secretion from U87 cells (slot blot of conditioned media); format: cell-based; settings: compound at 10 μM, 48 hrs, FIG. 1
Method: TNF-α secretion was measured using U87 cell line. Cells were distributed into 6 well dishes and allowed to adhere overnight. When cells were confluent, they were treated with 6-cyclohexyl-1-hydroxy-4-methyl-1H-pyridine-2-thione A1 at 10 μM in each dish, wherein compound A1 was solubilized in neat DMEM. Cells were exposed to the compound for 48 hrs. Conditioned media was collected and assayed for TNF-α using mouse monoclonal to TNF-α (Abcam 52B83, Cambridge, Mass.). Conditioned media (100 μL) was applied to each slot. The nitrocellulose filter membrane was blocked with ECL advanced block (2% in Tris buffered saline with Tween-20 (0.05%)) for 1 hr with gentle shaking at room temperature. Primary mouse anti-TNF-α (Abcam 52B83) was diluted 1,000× in the blocking solution. Primary antibodies were applied to blots and incubated overnight at 4° C. with gentle shaking. Blots were developed using enhanced ECL (GE Healthcare) method. Images of bound antibodies were captured using Image Lab software driving a Bio-Rad ChemiDoc XRS+ image capture system.

[3] = test system: human oligodendrocytes (MO3-13); test: TNF-α toxicity on MO3-13 cells and protection (Trypan blue cell counts); format: cell-based; settings: cells exposed to LD50 human TNF-α protein, FIG. 2
Method: MO3-13 cells were grown in 6 well dishes (100,000 cells per dish) and allowed to adhere overnight. Cells were treated with increasing amounts of human recombinant TNF-α protein (Abcam Ab9642). Cells either treated with increasing amounts of TNF-α protein or with vehicle (PBS) were allowed to grow for additional 24 hrs, after which MO3-13 cells were trypsinized and counted using Trypan blue and a Nebauer hemocytometer. Mean cell counts were plotted graphically against TNF-α concentrations. The LD50 of human TNF-α was determined to be 30 ng/mL on MO3-13 cells. The protective effects of compound A1 on MO3-13 cells that were exposed to LD50 human TNF-α protein were then determined and the results are shown in FIG. 2.

[4] = test system: MO3-13 cells; test: Protection of MO3-13 cells from cuprizone toxicity (phase contrast); format: cell-based, human; settings: compound 5 μM, cuprizone 50 μM, 24 hrs, FIG. 5
Method: The protective effects of compound A1 on MO3-13 cells from cuprizone toxicity was then determined. […] Cuprizone at a final concentration of 50 μM was solubilized in 100% ethanol was added to selected dishes with and without compound A1 (5 μM) in DMSO.

[5] = test system: primary mouse oligodendrocytes; test: Protection from cuprizone toxicity, primary mouse oligodendrocytes, MITOTRACKER and immunocytochemistry; format: cell-based; settings: MITOTRACKER (red) and beta-catenin (green), FIG. 6
Method: (§1) Stock MITOTRACKER® (Molecular Probes) was diluted with DMSO to a final concentration of 1 mM. MITOTRACKER® (100 nM) was incubated with the live cells at 37° C. for 30 min. MITOTRACKER® labeling of mitochondria was assessed using a Zeiss inverted microscope. Following MITOTRACKER® treatment, cells were processed for immunocytochemistry. Cells grown on mouse oligodendrocyte extracellular matrix coated cover slips (Celprogen) were fixed with fixing solution containing 0.1% gluteraldehyde, 2% paraformaldehyde, 80 mM Pipes, 5 mM EGTA, pH 8.0, 1 mM MgCl2, and 0.5% Triton-X100. The cells were fixed for 7 min at 37° C. The cells on cover slips were washed and then blocked with 2% bovine serum albumin (BSA) for 1 hr. Primary antibodies were diluted in 2% BSA and incubated on the cover glass for 1 hr in a humid chamber. Following incubation, cover slips were washed and then incubated for 1 hr with species-specific secondary antibodies conjugated with fluorescent label or with biotin. After washing, slides were incubated with streptavidin conjugated with fluorescein fluorescent labels for 40 min. Cover slips were washed again and mounted with DABCO mountant. Fluorescently labeled cells were visualized with a Zeiss epi-fluorescent microscope. Data collected was for MITOTRACKER® (red channel) and beta-catenin (green channel).

[6] = test system: primary human oligodendrocytes; test: Protection from cuprizone toxicity, primary human oligodendrocytes, live cell images; settings: 24 hrs, FIG. 7
Method: Cells were weaned off with fetal bovine serum containing differentiation medium (Celprogen) up to 25 days in culture. The cells were exposed to either no treatment (Vehicles=ethanol and DMSO); compound A1 ranging in dosage of 2, 5 and 10 μM; cuprizone (50 μM) (Sigma Aldrich) or a combination of compound A1 and cuprizone (50 μM). Cells were treated for 24 hrs, after which images were captured of live cells using an inverted Zeiss microscope.

[7] = test system: primary human oligodendrocytes; test: Protection from cuprizone toxicity, primary human oligodendrocytes, MITOTRACKER and immunocytochemistry; format: cell-based; settings: MITOTRACKER (red), green channel, nuclei (blue), FIGS. 8 and 9
Method: as §1, with “MITOTRACKER®” for “Stock MITOTRACKER® (Molecular Probes) was diluted with DMSO to a final concentration of 1 mM. MITOTRACKER®”, “human” for “mouse”, “MBP” for “beta-catenin”, “channel). Nuclei are labeled with DAPI (blue channel).” for “channel).”

[8] = test system: myelin basic protein (MBP) in MO3-13 cells; test: Induction of myelin basic protein (MBP) production in MO3-13 cells (slot blot, anti-MBP); format: cell-based, human
Method: Dilutions (0.1 mg/mL) of MO3-13 whole cell extracts were prepared and the proteins (5 μg) from the dilutions were blotted onto nitrocellulose membrane using a slot blotter. The non-protein sites on the blot were blocked with 2% ECL block in PBS-Tween20. Primary […] was diluted in block solution at 300×. The primary antibody was incubated overnight at 4° C. with gentle shaking. The following day the blot was developed using enhanced ECL (GE Healthcare) method. Image of bound antibody were captured using Image Lab software driving a Bio-Rad ChemiDoc XRS+ image capture system.

In the case of `Cc1cc(C2CCCCC2)n(O)c(=O)c1` [ciclopirox], the “protection of MO3-13 cells against TNF-α toxicity” value [1] is reported as “protection; also recorded: protective up to 72 hrs”.

In the case of `Cc1cc(C2CCCCC2)n(O)c(=S)c1` [compound A1, 6-cyclohexyl-1-hydroxy-4-methyl-1H-pyridine-2-thione], the “reduction of TNF-α secretion” value [2] is reported as “reduction of TNF-α secretion”, the “protection of MO3-13 cells against TNF-α toxicity” value [3] is reported as “protection” and the “protection of MO3-13 cells against cuprizone toxicity” value [4] is reported as “protection”. The “protection of primary mouse oligodendrocytes against cuprizone toxicity” value [5] was “protection”, the “protection of primary human oligodendrocytes against cuprizone toxicity” value ([6]; compound 2, 5 and 10 μM with cuprizone 50 μM, live cell images) was “protection; also recorded: appears to be protective at various dosings” and the “protection of primary human oligodendrocytes against cuprizone toxicity” value [7] was “protection”. For the same compound, the “MBP bound by anti-MBP (induction of MBP production)” value ([8]; MO3-13 cells treated with Cpz and compound, p<0.001, FIG. 10) was “induction of myelin basic protein (MBP) production; also recorded: significantly higher” and the “MBP bound by anti-MBP” value ([8]; MO3-13 cells treated with compound alone, p<0.001, FIG. 10) was “significantly higher”.

With `O=C(NN=C1CCCCC1)C(=O)NN=C1CCCCC1` [cuprizone, reference compound] the “toxicity of cuprizone to primary human oligodendrocytes” value ([6]; cuprizone 50 μM alone) was “toxic” and the “anti-MBP antibody binding compared with non-treated (NT) cells” value ([8]; MO3-13 cells treated with Cpz alone, FIG. 10) was “reduced anti-MBP antibody binding”.
